According to patent publication US20260027163A1, “GUT MICROBIOME BACTERIA AND ENZYMES THAT METABOLIZE DIETARY AND MEDICINAL PLANT SMALL MOLECULES TO AFFECT GUT MICROBIOME” (The Children's Medical Center Corporation, priority 2022, published 2026):

Tests used:
DSS-induced colitis = experiment: DSS-induced colitis, bioactivation of salicin by Bacteroides uniformis; type: in vivo; settings: salicin bioactivated to saligenin by Bacteroides uniformis; FIGS. 7A-7B
From the text: (§1) The present disclosure identifies and characterizes a novel mechanism by which the gut microbiome transforms abundant and chemically diverse small molecule components of human diet to drive pro-homeostatic programs in the intestine.

AhR [1] = molecular target: T1, AhR (Homo sapiens, UniProt P35869); experiment: Activation of xenobiotic sensor AhR; type: cell-based; settings: FIG. 4
T1 sequence (P35869 11-848): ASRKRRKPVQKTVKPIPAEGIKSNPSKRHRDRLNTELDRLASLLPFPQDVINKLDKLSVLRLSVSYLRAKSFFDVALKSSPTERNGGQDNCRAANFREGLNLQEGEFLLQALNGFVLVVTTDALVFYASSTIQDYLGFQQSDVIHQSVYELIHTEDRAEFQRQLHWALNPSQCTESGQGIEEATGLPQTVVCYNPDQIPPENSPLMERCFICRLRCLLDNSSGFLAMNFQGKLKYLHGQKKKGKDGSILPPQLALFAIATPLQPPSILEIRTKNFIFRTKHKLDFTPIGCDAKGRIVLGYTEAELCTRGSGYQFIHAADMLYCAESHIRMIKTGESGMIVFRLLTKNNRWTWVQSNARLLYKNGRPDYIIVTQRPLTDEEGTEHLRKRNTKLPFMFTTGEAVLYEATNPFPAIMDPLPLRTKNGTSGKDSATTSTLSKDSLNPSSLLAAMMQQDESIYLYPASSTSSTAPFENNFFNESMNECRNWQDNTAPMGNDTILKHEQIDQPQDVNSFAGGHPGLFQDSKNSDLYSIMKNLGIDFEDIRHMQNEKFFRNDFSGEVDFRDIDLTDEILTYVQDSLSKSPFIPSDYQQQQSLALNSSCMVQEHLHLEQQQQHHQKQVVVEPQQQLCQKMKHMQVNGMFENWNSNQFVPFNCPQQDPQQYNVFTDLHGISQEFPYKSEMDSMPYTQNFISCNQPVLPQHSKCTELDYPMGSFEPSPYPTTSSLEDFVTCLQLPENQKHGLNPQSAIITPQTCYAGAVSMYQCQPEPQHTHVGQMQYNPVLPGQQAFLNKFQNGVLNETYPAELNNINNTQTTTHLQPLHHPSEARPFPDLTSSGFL
From the text: Saligenin […] AhR, a xenobiotic immune sensor that drives pro-homeostatic processes in gut epithelia and immune cells.

[2] = tested on: DSS-induced intestinal inflammation; experiment: DSS-induced colitis, pure compound delivered orally; type: in vivo, mice
From the text: as §1

AhR [3] = molecular target: T2, AhR (Mus musculus, UniProt P30561); experiment: In vivo AhR activation in colitis, reversal with competitive AhR antagonist; settings: FIG. 9
T2 construct: endogenous in cells
T2 sequence (P30561 10-848): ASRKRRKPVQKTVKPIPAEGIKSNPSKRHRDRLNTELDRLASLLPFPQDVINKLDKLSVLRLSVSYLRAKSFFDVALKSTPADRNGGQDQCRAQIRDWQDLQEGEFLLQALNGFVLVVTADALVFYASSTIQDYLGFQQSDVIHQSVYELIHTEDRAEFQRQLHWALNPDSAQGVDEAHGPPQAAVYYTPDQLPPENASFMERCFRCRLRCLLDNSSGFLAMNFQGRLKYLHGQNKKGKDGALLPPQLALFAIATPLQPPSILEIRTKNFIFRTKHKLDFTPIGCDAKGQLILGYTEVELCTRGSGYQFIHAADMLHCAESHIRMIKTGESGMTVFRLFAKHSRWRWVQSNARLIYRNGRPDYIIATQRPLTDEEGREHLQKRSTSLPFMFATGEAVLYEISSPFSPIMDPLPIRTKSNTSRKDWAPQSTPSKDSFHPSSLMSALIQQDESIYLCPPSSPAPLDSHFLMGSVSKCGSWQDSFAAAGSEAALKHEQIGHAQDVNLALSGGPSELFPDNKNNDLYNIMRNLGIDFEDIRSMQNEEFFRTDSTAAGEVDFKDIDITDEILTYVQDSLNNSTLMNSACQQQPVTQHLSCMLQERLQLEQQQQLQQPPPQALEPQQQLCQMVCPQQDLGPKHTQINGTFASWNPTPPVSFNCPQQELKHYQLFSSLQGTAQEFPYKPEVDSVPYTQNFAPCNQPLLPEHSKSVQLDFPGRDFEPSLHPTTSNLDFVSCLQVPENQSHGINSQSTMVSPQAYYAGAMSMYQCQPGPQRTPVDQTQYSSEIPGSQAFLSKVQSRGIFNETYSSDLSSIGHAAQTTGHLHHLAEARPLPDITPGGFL
From the text: as §1

[4] = tested on: macrophages stimulated with pro-inflammatory LP5; experiment: Inflammatory cytokine production by stimulated macrophages after saligenin pre-treatment; type: cell-based; settings: in vitro, FIGS. 1A-1B

Row | SMILES | protection against DSS-induced colitis (DSS-induced colitis) | AhR activation (AhR [1]) | Th1-effector cells ([2]; DSS exposure, FIGS. 6A-6B) | colonic IFN-gamma ([2]; DSS exposure, FIGS. 11A-11B) | protection against DSS-induced intestinal inflammation ([2]; pure compound delivered orally daily for 7 days, mice, FIGS. 8A-8B) | AhR activation in vivo, reversibility by antagonist (AhR [3]) | inflammatory cytokine production [4]
1 | OCc1ccccc1O[C@@H]1O[C@H](CO)[C@@H](O)[C@H](O)[C@H]1O [salicin] | protected against DSS-induced colitis | – | – | – | – | – | –
2 | OCc1ccccc1O [saligenin] | – | activated | decrease in Th1-effector cells | decrease in colonic IFN-gamma | protected against DSS-induced intestinal inflammation | can be reversed with a competitive AhR antagonist | attenuated inflammatory cytokine production
